Measured values taken from PMC12728982, “Multichiral Half-Sandwich Ru(II) and Os(II) Anticancer Complexes Containing a Glutathione Synthesis Inhibitor” (Organometallics, 2025).

System: HeLa cervical adenocarcinoma cells
Test: Antiproliferative activity, SRB assay
Format: cell-based, human
Procedure: The antiproliferative activity against human A549 lung, IGROV-1 ovarian, and HeLa cervical cancer cell lines and MRC5 normal lung fibroblasts was determined by the sulforhodamine B (SRB) assay. […] IGROV-1 is known to be cisplatin-sensitive and subject to hypermutation.
2.8 Mammalian cell culture
The human ovarian cancer cell line, IGROV-1; the human cervical cancer cell line, HeLa; the human […]; and the human non-cancerous lung fibroblast cell line, MRC5 were cultured in DMEM supplemented with 10% FBS and 100 units/mL of penicillin and 100 µg/mL of streptomycin (1x pen/strep). All cell lines were incubated at 310 K with 5% CO2 and 95% humidity for routine maintenance and during drug treatment.
2.9 Sulforhodamine (SRB) cytotoxicity assay
Cells were seeded at 5 × 10^3 cells per well and incubated at 310 K for 48 h. Stock solutions (200 µM) of the complexes were prepared by dissolving the compound in 5% (v/v) DMSO followed by dilution with DMEM and serial dilutions with DMEM were prepared (0.1 µM-200 µM). The cells were exposed to the drug for 24 h. The drug was then removed, and cells were allowed to recover for 72 h, in drug-free media. Cell viability was then determined by the SRB colorimetric assay. The solubilised dye absorbance was analysed on a microplate reader (Thermo Scientific Multiskan FC with Scanit software 4.1) at 470 nm. Data were normalized using Microsoft Excel, and dose-response curves fitted using Origin 2016. The IC50 values

[(p-cymene)Os(L-BSO)Cl] [Os-LBSO]
Activity toward HeLa cervical cancer cells (SRB): inactive
IC50 (SRB assay, 24 h treatment, 72 h recovery): > 200 µM
